This note sets out measurements from patent US11883441B2, “Compositions and methods for inhibiting seizures” (The Regents of the University of California, priority 2016, dated 2024).

The test system of one series is Swiss Webster mice. As to the kind of experiment: 6-Hz psychomotor seizure assay. Format: in vivo, mouse.
The subject of another series is Kcna1−/− mice. As to the kind of experiment: Kcna1 seizure recordings (EEG). It is filed as in vivo, mouse. Conditions: CD-fed SPF Kcna1−/− mice; 13.3 mg/kg oral gavage every 12 hours. How it is done:
EEG Implantation and Recovery. EEGs were recorded from male and female Kcna1^−/− mice at 6-7 weeks of age. Kcna1^+/+ littermates were used as controls. […] Data presented include both sexes. Mice were anesthetized with isoflurane (5% induction, 2% maintenance) and eye ointment applied to each eye. Fur was removed along the head, and the area was cleaned with three alternative scrubs of chlorohexidine and 70% isopropanol. In a biosafety cabinet, mice were positioned in a stereotaxic apparatus (Harvard Biosciences) and 1 mg/kg lidocaine+1 mg/kg bupivacaine was applied locally along the incision site. […]
During EEG recordings animals were freely moving and maintained on experimental diet. […] Simultaneous video recordings of behavioral seizures were correlated with EEG recordings and scored based on an adapted Racine scale and defined by 5 stages: 1) myoclonic jerk, 2) head stereotypy and facial clonus, 3) bilateral and alternating forelimb/hindlimb clonus, 4) rearing and falling, and 5) generalized tonic-clonic episodes. Data were analyzed by a blinded researcher using Neuroscore CNS Software (DSI). EEG signals were filtered using a 10 Hz high pass filter, and seizure events were detected by blinded manual scoring. […]
For wild type mice: 4-week old SPF Swiss Webster mice were fed CD ad libitum for 14 days. […] Seizures were recorded over 3 days by EEG beginning 2 hours after the final gavage. […]

Series [1] concerns gamma-glutamyltranspeptidase (GGT). As to the kind of experiment: GGT activity assay in fecal samples. It is filed as biochemical. To be noted: fecal samples exposed in vitro, 500 uM. How it is done:
GGT activity was measured as previously described in van der Stel, Frontiers in Microbiology (6), 567 (2015). For anaerobic cultures, bacteria were seeded at 3×10^5 cfu/ml in CD- and KD-based media. 1 ml bacterial suspension was pelleted and frozen at −80° C. for 1 hr. Separate aliquots of the same suspension were plated in BHI mucin agar media or RCM and incubated at 37° C. in a Coy anaerobic chamber for later data normalization by bacterial cfu. Pellets were then resuspended in 250 ul lysis buffer (50 mM Tris-HCl with 1 ug/ml lysozyme) and incubated on ice for 30 min. For fecal samples, one pellet was weighed and homogenized in 1 ml lysis buffer. Bacterial and fecal suspensions were then sonicated (QSonica 125) and centrifuged at 12000×g for 10 min at 4° C. […] Absorbance at 405 nm denoting production of 3-carboxy-4-nitroaniline was measured every minute for 1 hr at 37° C. using an automated multimode plate reader (Biotek Synergy H1).
To gain insight into whether the KD and interactions between A. muciniphila and Parabacteroides spp. suppressed bacterial gamma-glutamylation in vivo, GGT activity was measured in fecal samples collected from SPF or A. muciniphila and Parabacteroides spp.-enriched mice fed the CD or KD.

The next series deals with A. muciniphila. As to the kind of experiment: Cross-feeding in vitro assay, A. muciniphila growth. It is filed as cell-based, Akkermansia muciniphila. Conditions: exposed to P. merdae pre-treated with 500 uM for 2 hours; 24 hours after incubation; vs vehicle-treated P. merdae. How it is done: (§1) Cross-feeding was measured as previously described. A. muciniphila was embedded at 2×10^6 cfu/ml in 5 ml pre-reduced CD or KD-based liquid media supplemented with 1% agar at the bottom of an anaerobic tube, and P. merdae was overlaid above it at 6×10^6 cfu/ml in 5 ml pre-reduced M9 minimal media. Diet-based media were generated by aseptically suspending mouse KD vs. CD diets, described above, to 2 kcal/ml in M9 media. Pilot experiments confirmed no ectopic translocation of embedded A. muciniphila from the agar compartment into the above M9 liquid compartment. For each time point, aliquots were taken from the top and bottom compartments, plated in a dilution series in rich media (RCM for P. merdae and BHI+0.05% mucins for A. muciniphila), and colonies were counted. For GGsTop pre-treatment experiments, P. merdae was incubated with 500 uM GGsTop vs vehicle in RCM media at 37° C. for 2 hours and then washed with sterile media.

In the next series the test system is P. merdae. Nature of the series: Cross-feeding in vitro assay, P. merdae growth and viability. Format: cell-based. To be noted: pre-treatment 500 uM, 2 hours, pilot experiments. How it is done: as §1

Description for Swiss Webster mice: All subsequent experimental cohorts contained male mice. One drop (˜50 ul) of 0.5% tetracaine hydrochloride ophthalmic solution was applied to the corneas of each mouse 10-15 min before stimulation. Corneal electrodes were coated with a thin layer of electrode gel (Parker Signagel). A constant-current current device (ECT Unit 57800, Ugo Basile) was used to deliver current at 3 sec duration, 0.2 ms pulse-width and 6 pulses/s frequency. CC50 (the intensity of current required to elicit seizures in 50% of the experimental group) was measured as a metric for seizure susceptibility. […] Each mouse was seizure-tested only once, and thus at least n>6 mice were used to adequately power each experiment group. To determine CC50s for each experimental group, 24 mA currents were administered to the first mouse per experimental group per cohort, followed by fixed increases or decreases by 2 mA intervals. […] Locomotor behavior was recorded using Ethovision XT software (Noldus) and quantitative measures for falling, tail dorsiflexion (Straub tail), forelimb clonus, eye/vibrissae twitching and behavioral remission were scored manually. […] Latency to exploration (time elapsed from when an experimental mouse is released into the observation cage (after corneal stimulation) to its first lateral movement) was scored using Ethovision and manually with an electronic timer. […]

In the case of `COP(=O)(CCC(N)C(=O)O)Oc1cccc(CC(=O)O)c1` (stereo not drawn) [GGsTop, 3-[[(3-amino-3-carboxypropyl)methoxyphosphinyl]oxy]benzeneacetic acid], the Seizure threshold entry with Swiss Webster mice (SPF CD mice gavaged for 3 days, 13.3 mg/kg every 12 hours) was “increases in seizure thresholds”. Further, the Seizures per day entry with Kcna1−/− mice is recorded as “significant decrease in seizures per day”. The “GGT activity signal of fecal samples” value in series [1] is “eliminated the detected signals”. Further, in the series on A. muciniphila, the A. muciniphila growth entry was “increased growth”. In addition, the P. merdae viability entry in the series on P. merdae is “no significant effect”.
In the case of Bifidobacterium longum, the “Protection against 6-Hz seizures / seizure threshold” value in the series with Swiss Webster mice (Abx-treated SPF mice gavaged with 10^9 cfu bacteria, fed KD, tested at 14 days) was “no effect”.
